Read-outs that look alike come from different tables or passages of the source.
Tests used:
[1] = tested on: RNA Polymerase II Serine 5 phosphorylation (Rpb1 CTD, downstream substrate of CDK7) in A549 cells; experiment: Imaging-based cellular RNA PolII Ser5 phosphorylation assay in A549 cells; assay type: cell-based, human; conditions: Homo sapiens, A549, A549 cells, wild-type CDK7; RNA PolII Ser5 phosphorylation; averaged over all measurements; read-out: CDK7_A549 Wild-type CDK7 (pIC50) (converted)
Method in brief: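 A549 cells, seeded 1000/well in DMEM with 1% FBS and cultured 20 h, were treated with compound for 3 h at 37 °C. Ser5-phospho-Rpb1 CTD detected by immunofluorescence imaging after fixation and methanol permeabilization; IC50 from curve fit normalized to DMSO and 10 μM reference-compound controls.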

[2] = target: CDK7/cyclinH/MAT1 trimeric complex (Homo sapiens, UniProt P50613); experiment: In vitro CDK7 assay, potency of irreversible covalent inhibitors (kinact/KI), coupled PK/LDH ADP readout at 340 nm
[3] = tested on: RNA Polymerase II Serine 5 phosphorylation in A549 cells overexpressing CDK7-mutant (C312S); experiment: Imaging-based cellular RNA PolII Ser5 phosphorylation assay in A549 cells overexpressing CDK7-mutant (C312S); assay type: cell-based, human; conditions: Homo sapiens, A549, A549 cells overexpressing CDK7-mutant (C312S); RNA PolII Ser5 phosphorylation; averaged over all measurements; read-out: CDK7_A549 mutant hCDK7(pIC50) (converted)
Method in brief: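 A549 cells overexpressing CDK7 C312S (with endogenous wild-type CDK7) were treated with compound for 3 h at 37 °C in 1% FBS medium. Phospho-Rpb1 CTD Ser5 was immunostained after fixation and imaged. IC50 came from curve fit of % control, normalised to DMSO and 10 μM reference-compound controls.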

[4] = CDK7 (20 nM enz.) (KI, μM), 20 nM enzyme
[5] = read-out: CDK7 (20 nM enz.) (kinact, s^−1), 20 nM enzyme
[6] = read-out: CDK7 (20 nM enz.) (kinact/KI, M^−1*s^−1), 20 nM enzyme
[7] = read-out: CDK7 (kinact/KI, M^−1*s^−1), potency of irreversible covalent inhibitors, 1 mM ATP, room temperature, averaged values over all measurements
[8] = read-out: CDK7 (20 nM enz.) (kobs/[I], M^−1*s^−1), 20 nM enzyme

Chain of CDK7/cyclinH/MAT1 trimeric complex (P50613 whole entry): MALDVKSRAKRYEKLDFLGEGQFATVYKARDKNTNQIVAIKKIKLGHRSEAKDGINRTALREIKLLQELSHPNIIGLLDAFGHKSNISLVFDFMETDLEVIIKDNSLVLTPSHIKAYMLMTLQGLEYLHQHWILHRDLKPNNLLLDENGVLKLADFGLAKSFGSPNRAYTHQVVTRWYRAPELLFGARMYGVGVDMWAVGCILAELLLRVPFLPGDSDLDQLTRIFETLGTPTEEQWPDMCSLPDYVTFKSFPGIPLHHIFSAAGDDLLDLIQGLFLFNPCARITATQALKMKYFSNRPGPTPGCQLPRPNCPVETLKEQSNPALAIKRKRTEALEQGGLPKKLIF
Chain of CDK7/cyclinH/MAT1 trimeric complex (P51946 whole entry partner): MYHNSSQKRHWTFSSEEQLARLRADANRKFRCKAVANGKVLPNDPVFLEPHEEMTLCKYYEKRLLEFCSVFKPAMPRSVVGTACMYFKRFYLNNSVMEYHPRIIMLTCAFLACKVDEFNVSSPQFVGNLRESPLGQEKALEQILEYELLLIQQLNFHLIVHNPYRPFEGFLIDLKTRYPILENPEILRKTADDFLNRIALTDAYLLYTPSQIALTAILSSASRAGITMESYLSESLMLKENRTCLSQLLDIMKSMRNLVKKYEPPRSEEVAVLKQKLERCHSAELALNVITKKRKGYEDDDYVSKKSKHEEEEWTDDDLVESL
Chain of CDK7/cyclinH/MAT1 trimeric complex (P51948 whole entry partner): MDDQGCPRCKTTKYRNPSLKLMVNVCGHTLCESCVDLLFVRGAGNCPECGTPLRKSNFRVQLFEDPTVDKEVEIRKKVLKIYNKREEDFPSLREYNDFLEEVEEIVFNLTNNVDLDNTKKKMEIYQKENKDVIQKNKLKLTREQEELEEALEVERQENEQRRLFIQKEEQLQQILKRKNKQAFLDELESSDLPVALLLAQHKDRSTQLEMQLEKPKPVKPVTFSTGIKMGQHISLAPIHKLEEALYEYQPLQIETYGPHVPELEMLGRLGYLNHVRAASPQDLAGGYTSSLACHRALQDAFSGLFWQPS

| Compound | IC50 [1] [µM] | Ki [2, 4] [µM] | kinact [2, 5] [s⁻¹] | kinact/KI [2, 6] [M⁻¹ s⁻¹] | IC50 [3] [µM] | Ki ([2]; CDK7 (KI(μM)), […], 1 mM ATP, room temperature, averaged values over all measurements) [µM] | kinact ([2]; read-out: CDK7 (kinact, s^−1), kinact = maximal rate of inactivation, 1 mM ATP, room temperature, averaged values over all measurements) [s⁻¹] | kinact/KI [2, 7] [M⁻¹ s⁻¹] | kinact/KI [2, 8] [M⁻¹ s⁻¹] |
| --- | --- | --- | --- | --- | --- | --- | --- | --- | --- |
| C=CC(=O)N1CCC(N2CC(c3cc4c(c(C)n3)OCc3c(-c5cnn(C)c5)ccnc3N4)C2)CC1 [Compound 170] | 0.12 | 0.125 | 3.7e-05 | 296 | 7.76 |  |  |  |  |
| C=CC(=O)N1CC(N2CCC(O)(c3ccc4c(c3)Nc3nccc(N5CCOCC5)c3C(C)O4)CC2)C1 (stereo not shown) [Compound 154] | 0.117 | 0.137 | 5.98e-05 | 438 | > 10 |  |  |  |  |
| C=C(C)C(=O)N1CC(N2CCC(c3cc4c(c(C)n3)OCc3c(-c5cnn(C)c5)ccnc3N4)CC2)C1 [Compound 536] | > 10 | 6.8 |  |  | > 10 |  |  |  |  |
| C=CC(=O)N1CC(N2CCC(c3ccc4c(c3)Nc3nccc(C5=CCOCC5)c3CO4)CC2)C1 [Compound 10] | 0.204 |  |  |  | > 10 | 0.0555 | 0.000107 | 1570 |  |
| C=CC(=O)N1CC(N2CCC(c3cc(C)c4c(c3)Nc3nccc(C5=CCS(=O)(=O)CC5)c3CO4)CC2)C1 [Compound 81] | 0.417 | 0.067 | 4.29e-05 | 640 | > 10 |  |  |  |  |
| C=CC(=O)N1CC(N2CCC(c3ccc4c(c3)Nc3nccc(N5CC=C(CCO)CC5)c3CO4)CC2)C1 [Compound 12] | 0.537 |  |  |  | > 10 |  |  | 296 |  |
| C#Cc1cc(C2CCN(C3CN(C(=O)C=C)C3)CC2)cc2c1OC(C)c1c(N3CCOCC3)ccnc1N2 (stereo not shown) [Compound 181] | ~0.0209 |  |  |  | > 10 |  |  |  | 864 |
| C=CC(=O)N1CC[C@@H](N2CC(c3cc4c(c(C5CC5)n3)O[C@@H](C)c3c(N5CCOCC5)ccnc3N4)C2)C1 (single isomer, unassigned) [Compound 467] | 0.117 | 0.0121 | 3.18e-05 | 2630 | > 10 |  |  |  |  |
| CC#CC(=O)N1CC(n2cc(-c3cc(C#N)c4c(c3)Nc3nccc(N5CCOCC5)c3[C@H](C)O4)cn2)C1 (single isomer, unassigned) [Compound 449] | 0.0331 |  |  |  | 2.34 |  |  |  | 328 |
| C=CC(=O)N1CC(N2CCC(O)(c3cc(C)c4c(c3)Nc3nccc(C5CCOCC5)c3CO4)CC2)C1 [Compound 159] | 0.0708 | 0.144 | 0.000115 | 794 | > 10 |  |  |  |  |
| C=CC(=O)N1CC[C@@H](N2CC(c3cc4c(c(C(F)(F)F)n3)O[C@@H](C)c3c(N5CCOCC5)ccnc3N4)C2)C1 (single isomer, unassigned) [Compound 504] | 0.0479 |  |  | 681 | 7.76 |  |  |  |  |
| CC#CC(=O)N1CCC(N2CCC(c3cc4c(c(C)n3)OCc3c(N5CCOCC5)ccnc3N4)CC2)CC1 [Compound 325] | < 0.00977 |  |  |  | 4.17 |  |  |  | 1280 |
| C=CC(=O)N1CC(N2CC(c3cc4c(c(C)n3)O[C@H](C)c3c(N5CCOCC5)ccnc3N4)C2)C1 (single isomer, unassigned) [Compound 270] | 0.117 | 0.0518 | 3.7e-05 | 714 | > 10 |  |  |  |  |
| C=CC(=O)N1CCC(N2CC(c3cc4c(c(C)n3)OCc3c(N5CCOCC5)ccnc3N4)C2)CC1 [Compound 303] | 0.0912 | 0.0492 | 2.35e-05 | 477 | 6.17 |  |  |  |  |
| C=CC(=O)N1CC[C@@H](N2CC(c3cc(C#N)c4c(c3)Nc3nccc(N5CCOCC5)c3[C@H](C)O4)C2)C1 (single isomer, unassigned) [Compound 461] | 0.692 |  |  | 16.1 | > 10 |  |  |  |  |
| C#CCOc1cc(C(=O)Nc2ccc3c(c2)Nc2nccc(C4CCOCC4)c2CO3)ccc1NC(=O)C=C [Compound 8] | 0.12 | 0.0321 | 5.8e-05 | 1810 | > 10 |  |  | 1530 |  |
| CC#CC(=O)N1CCC(N2CC(c3cc4c(c(C(F)(F)F)n3)O[C@@H](C)c3c(N5CCOCC5)ccnc3N4)C2)CC1 (single isomer, unassigned) [Compound 502] | 0.603 |  |  | 9.74 | > 10 |  |  |  |  |
